# Assay results taken from patent publication US20070134391A1, “High-Potency Sweetener Composition for Treatment and/or Prevention of Autoimmune Disorders and Compositions Sweetened Therewith” (THE COCA-COLA COMPANY, priority 2005, published 2007).
# Legend:
# [1] = system: panel of experts in the sensory evaluation of foods and beverages; test: Sensory evaluation of sweetness linger and sugar-like taste by expert panel; format: in vivo; settings: scale 0=no sweetness linger to 5=high sweetness linger
# Method: Sensory evaluation of the samples prepared in Example Set G was carried out under the following protocol, similar to that described hereinabove. In this test protocol, none of the samples were swallowed. All samples were expectorated and the mouth was rinsed with water after the tasting. Immediately upon sensing maximal sweetness, the sample was expectorated, the mouth was rinsed with water and the rate of sweetness decay (“Sweetness Linger”) was measured, where attention was focused on the sweetness 3-4 min after the water rinse. After sample tasting was complete, a salty oyster cracker was chewed followed by a water rinse, and at least 5 minutes followed before tasting the next sample. The sweetness linger was rated by a panel of experts in the sensory evaluation of foods and beverages using the following scale: 0=no sweetness linger, 1=very slight sweetness linger, 2=slight sweetness linger, 3=moderate sweetness linger, 4=moderately high sweetness linger, 5=high sweetness linger.
# The “Sweetness Linger” rating for sucrose observed by this protocol is defined as 0. The Sweetness Linger of a 500 ppm of REBA control sample is defined as 5. Experimental samples were tasted by the same protocol, always allowing sufficient time between samples to ensure re-equilibration of the sensory system. Re-tasting of control samples during the course of the experiment was allowed and encouraged.
# The comparison taste test was performed between two controls and addition of sweet taste improving additive on the onset and/or sweetness linger.
# Sweet taste improving compositions were combined with a REBA solution to determine their effect on sweetness linger. Screening of the initial sample, or further dilutions, allowed identification of concentrations which were just above-threshold, herein defined as “near-threshold concentrations.” The near-threshold additive concentrations, a 6- to 100-fold higher higher additive concentration (depending on the off-taste intensity), and a mid-level additive concentration (halfway between the near-threshold and higher additive concentration) were evaluated to determine the effect on sweetness linger of a REBA solution.
# Formulations of a 500 ppm EBA in a phosphoric acid solution (75%) at a pH of 2.5 with phosphoric acid or a pH of 3.1 with citric acid and potassium citrate were prepared prior to the addition of the additives at the three levels of concentration.
# Sensory evaluation using the protocol described in Example Set G then was used to evaluate the sweetness linger of the REBA solutions.
# [2] = Rate of dissolution of rebaudioside A polymorph and amorphous forms in H2O; format: physicochemical
# [3] = Example Set G: citric acid/potassium citrate composition equivalent to diet lemon-lime beverage, 3-4 min after water rinse
# [4] = Example Set H: carbon-treated water with phosphoric acid (75%) to pH 2.4-2.5
Compound,"sweetness linger [1, 3]","sweetness linger [1, 4]",Rate of dissolution in H2O at 25° C. [2]
"OC[C@H]1O[C@@](CO)(O[C@H]2O[C@H](CO)[C@@H](O)[C@H](O)[C@H]2O)[C@@H](O)[C@@H]1O [sugar, sucrose]",0,0,
rebaudioside A,5,5,
rebaudioside A [Form 1],,,Very low (<0.2%/ %/60 minutes
